Measured values from patent US8471005B2 (Cephalon, Inc., priority 2008, dated 2013).
pIC50: −log10 of the molar value. Where two headings read alike, the source gives them in different places.

How the values were obtained:
JAK2 = molecular target: T1, JAK2 (Homo sapiens, UniProt O60674); experiment: Recombinant Human JAK2 Kinase Assay (TRF); assay type: biochemical; details: read-out: JAK2 Potency
T1 construct: host or cells: baculovirus expression system
Procedure, shortened: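 Europium-labelled PY100 antibody reported tyrosine phosphorylation of a Neutravidin-captured biotinyl 15-mer peptide by JAK2 (baculovirus-expressed, 15 ng/ml). Conditions: 20 mM HEPES pH 7.2, 0.2 μM ATP, 1 mM MnCl2, 0.1% BSA, DMSO 2.5% final, 20 min at room temperature.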

ALK = molecular target: T2, ALK (Homo sapiens, UniProt Q9UM73); experiment: ALK Kinase Assay (ELISA/TRF, PLC-γ substrate); assay type: biochemical; details: read-out: ALK Potency
T2 construct: host or cells: baculovirus expression system
Procedure, shortened: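 PLC-γ substrate coated at 10 μg/mL in TBS; reaction started with 30 ng/ml ALK, run 15 min at 37° C. Phosphoproduct detected by TRF with Eu-N1-labeled PT66 anti-phosphotyrosine antibody. IC50 from sigmoidal variable-slope fit of percent inhibition versus log concentration.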

[1] = JAK2 kinase inhibition, 0.2 μM ATP
[2] = ALK kinase inhibition, 1 μM ATP

T2 sequence (Q9UM73 19-1620): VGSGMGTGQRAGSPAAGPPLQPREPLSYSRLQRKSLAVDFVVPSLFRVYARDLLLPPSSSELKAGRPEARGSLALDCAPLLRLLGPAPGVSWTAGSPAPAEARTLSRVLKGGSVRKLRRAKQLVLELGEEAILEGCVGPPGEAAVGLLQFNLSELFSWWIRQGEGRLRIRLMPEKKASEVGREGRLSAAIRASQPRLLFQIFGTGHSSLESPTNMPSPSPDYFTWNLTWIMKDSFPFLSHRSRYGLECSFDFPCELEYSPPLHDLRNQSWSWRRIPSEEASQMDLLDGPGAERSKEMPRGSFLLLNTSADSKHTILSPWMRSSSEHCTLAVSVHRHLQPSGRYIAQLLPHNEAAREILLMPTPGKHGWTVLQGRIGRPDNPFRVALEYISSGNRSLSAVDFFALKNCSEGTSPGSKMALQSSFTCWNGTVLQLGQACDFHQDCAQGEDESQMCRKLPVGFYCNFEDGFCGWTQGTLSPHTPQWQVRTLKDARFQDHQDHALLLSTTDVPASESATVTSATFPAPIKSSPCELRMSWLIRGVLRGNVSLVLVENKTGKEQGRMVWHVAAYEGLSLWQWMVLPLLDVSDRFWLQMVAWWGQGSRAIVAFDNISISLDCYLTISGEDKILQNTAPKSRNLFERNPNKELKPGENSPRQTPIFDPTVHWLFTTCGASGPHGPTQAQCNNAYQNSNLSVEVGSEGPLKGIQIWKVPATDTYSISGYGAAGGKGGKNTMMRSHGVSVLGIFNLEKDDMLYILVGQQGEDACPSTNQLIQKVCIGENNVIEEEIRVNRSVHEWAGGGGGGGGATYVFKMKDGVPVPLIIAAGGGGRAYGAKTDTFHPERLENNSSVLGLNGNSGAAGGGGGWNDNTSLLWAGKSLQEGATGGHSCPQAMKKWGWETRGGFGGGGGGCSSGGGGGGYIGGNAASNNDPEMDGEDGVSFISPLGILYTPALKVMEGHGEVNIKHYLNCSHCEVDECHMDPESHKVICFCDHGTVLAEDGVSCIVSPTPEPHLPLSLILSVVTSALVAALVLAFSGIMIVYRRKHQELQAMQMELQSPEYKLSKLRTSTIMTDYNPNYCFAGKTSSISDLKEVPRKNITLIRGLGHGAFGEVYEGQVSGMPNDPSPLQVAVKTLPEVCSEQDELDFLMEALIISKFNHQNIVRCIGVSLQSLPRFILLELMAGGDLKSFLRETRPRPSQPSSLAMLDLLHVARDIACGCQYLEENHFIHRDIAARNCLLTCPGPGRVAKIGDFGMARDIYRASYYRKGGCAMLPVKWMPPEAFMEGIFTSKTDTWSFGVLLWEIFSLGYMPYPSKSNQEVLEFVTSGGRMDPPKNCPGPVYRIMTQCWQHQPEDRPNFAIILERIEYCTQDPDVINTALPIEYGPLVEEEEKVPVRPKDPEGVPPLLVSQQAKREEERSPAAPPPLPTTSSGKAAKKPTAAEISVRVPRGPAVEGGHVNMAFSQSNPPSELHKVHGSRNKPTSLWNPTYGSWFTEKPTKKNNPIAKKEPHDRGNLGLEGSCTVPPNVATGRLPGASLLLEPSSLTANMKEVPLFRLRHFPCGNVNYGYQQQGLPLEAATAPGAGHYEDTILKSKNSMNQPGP
T1 sequence (O60674 whole entry): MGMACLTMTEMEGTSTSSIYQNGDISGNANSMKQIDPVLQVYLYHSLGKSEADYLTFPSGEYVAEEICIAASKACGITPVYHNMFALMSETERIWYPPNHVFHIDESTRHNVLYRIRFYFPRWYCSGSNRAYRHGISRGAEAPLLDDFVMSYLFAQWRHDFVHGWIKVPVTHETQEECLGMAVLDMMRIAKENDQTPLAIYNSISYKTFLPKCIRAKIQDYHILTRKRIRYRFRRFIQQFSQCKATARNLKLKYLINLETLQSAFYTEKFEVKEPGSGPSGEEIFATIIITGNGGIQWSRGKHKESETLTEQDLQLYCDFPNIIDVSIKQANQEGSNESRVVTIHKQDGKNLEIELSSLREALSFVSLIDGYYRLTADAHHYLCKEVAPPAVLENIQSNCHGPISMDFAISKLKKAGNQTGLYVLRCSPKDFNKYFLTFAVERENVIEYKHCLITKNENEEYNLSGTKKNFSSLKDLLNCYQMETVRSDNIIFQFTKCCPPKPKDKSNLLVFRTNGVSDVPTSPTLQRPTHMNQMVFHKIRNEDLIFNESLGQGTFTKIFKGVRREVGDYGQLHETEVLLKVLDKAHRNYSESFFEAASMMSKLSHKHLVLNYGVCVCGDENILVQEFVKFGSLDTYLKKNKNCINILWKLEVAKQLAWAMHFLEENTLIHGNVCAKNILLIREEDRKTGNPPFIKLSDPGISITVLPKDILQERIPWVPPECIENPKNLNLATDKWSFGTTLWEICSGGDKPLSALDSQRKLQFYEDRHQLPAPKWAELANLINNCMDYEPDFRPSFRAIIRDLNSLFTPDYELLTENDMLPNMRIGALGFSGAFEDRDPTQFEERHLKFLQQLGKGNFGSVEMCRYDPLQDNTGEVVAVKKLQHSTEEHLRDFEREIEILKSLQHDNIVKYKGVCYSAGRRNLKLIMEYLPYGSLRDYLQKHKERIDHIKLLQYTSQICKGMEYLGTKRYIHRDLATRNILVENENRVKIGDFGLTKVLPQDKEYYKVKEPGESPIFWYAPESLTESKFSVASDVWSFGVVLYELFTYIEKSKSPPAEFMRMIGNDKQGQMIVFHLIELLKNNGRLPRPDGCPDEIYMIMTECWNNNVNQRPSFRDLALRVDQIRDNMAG

Compound	pIC50 (JAK2; [1])	pIC50 (ALK; [2])	pIC50 (JAK2; JAK2 Kinase Inhibition)	pIC50 (ALK; ALK Kinase Inhibition)
Cc1cc(-c2ccc(S(C)(=O)=O)cc2)n2nc(Nc3ccc(N4CCOCC4)cc3)ncc12 [Example 107, [7-(4-Methanesulfonyl-phenyl)-5-methyl-pyrrolo[2,1-f][1,2,4]triazin-2-yl]-(4-morpholin-4-yl-phenyl)-amine]			> 7.00	6.00 to 7.00
COc1ccccc1-c1ccc2cnc(Nc3ccc(N4CCC(N5CCOCC5)CC4)cc3)nn12 [Example 334, [7-(2-Methoxy-phenyl)-pyrrolo[2,1-f][1,2,4]triazin-2-yl]-[4-(4-morpholin-4-yl-piperidin-1-yl)-phenyl]-amine]			> 7.00	> 7.00
Cc1cc(Nc2ncc3ccc(-c4cccc(Cl)c4)n3n2)ccc1N1CCN(C)CC1 [Example 69, [7-(3-Chloro-phenyl)-pyrrolo[2,1-f][1,2,4]triazin-2-yl]-[3-methyl-4-(4-methyl-piperazin-1-yl)-phenyl]-amine]			> 7.00	> 7.00
Oc1ccc(-c2ccc3cnc(Nc4ccc(N5CCOCC5)cc4)nn23)cn1 [Example 331, 5-[2-(4-Morpholin-4-yl-phenylamino)-pyrrolo[2,1-f][1,2,4]triazin-7-yl]-pyridin-2-ol]			> 7.00	5.00 to 6.00
CC(C)(O)CN1CCN(c2ccc(Nc3ncc4ccc(-c5cccc(Cl)c5)n4n3)cc2)CC1 [Example 223, 1-(4-{4-[7-(3-Chloro-phenyl)-pyrrolo[2,1-f][1,2,4]triazin-2-ylamino]-phenyl}-piperazin-1-yl)-2-methyl-propan-2-ol]			> 7.00	> 7.00
CS(=O)(=O)c1cccc(-c2ccc3cnc(Nc4ccc(C5(C#N)CCN(CC(N)=O)CC5)cc4)nn23)c1 [Example 1546, 2-(4-Cyano-4-{4-[7-(3-methanesulfonyl-phenyl)-pyrrolo[2,1-f][1,2,4]triazin-2-ylamino]-phenyl}-piperidin-1-yl)-acetamide]			> 7.00	5.00 to 6.00
COc1cc(N2CCCC(N3CCN(S(C)(=O)=O)CC3)C2)ccc1Nc1ncc2ccc(-c3ccccc3OC)n2n1 (centres unmarked) [Example 233, {4-[3-(4-Methanesulfonyl-piperazin-1-yl)-piperidin-1-yl]-2-methoxy-phenyl}-[7-(2-methoxy-phenyl)-pyrrolo[2,1-f][1,2,4]triazin-2-yl]-amine]			> 7.00	> 7.00
[7-(4-Methanesulfonyl-phenyl)-pyrrolo[2,1-f][1,2,4]triazin-2-yl]-[2-methoxy-4-(4-methyl-piperazin-1-yl)-phenyl]-amine [Example 1126]	> 7.00	> 7.00		
COc1ccccc1-c1ccc2cnc(Nc3cccc(OC4CCNCC4)c3)nn12 [Example 601, [7-(2-Methoxy-phenyl)-pyrrolo[2,1-f][1,2,4]triazin-2-yl]-[3-(piperidin-4-yloxy)-phenyl]-amine]	> 7.00	6.00 to 7.00		
Fc1cccc(-c2ccc3cnc(Nc4cccc(N5CCOCC5)c4)nn23)c1 [Example 175, [7-(3-Fluoro-phenyl)-pyrrolo[2,1-f][1,2,4]triazin-2-yl]-(3-morpholin-4-yl-phenyl)-amine]			> 7.00	6.00 to 7.00
CC(C)(C)NS(=O)(=O)c1cccc(-c2ccc3cnc(Nc4ccc(C5(C#N)CCN(CC(N)=O)CC5)cc4)nn23)c1 [Example 1544, 2-(4-{4-[7-(3-tert-Butylsulfamoyl-phenyl)-pyrrolo[2,1-f][1,2,4]triazin-2-ylamino]-phenyl}-4-cyano-piperidin-1-yl)-acetamide]			> 7.00	6.00 to 7.00

Further lines, results first:

pIC50 (JAK2; [1])	pIC50 (ALK; [2])	pIC50 (JAK2; JAK2 Kinase Inhibition)	pIC50 (ALK; ALK Kinase Inhibition)	Compound
> 7.00	5.00 to 6.00			CC(C)(C)NS(=O)(=O)c1cccc(-c2ccc3cnc(Nc4ccc5c(c4)N(S(C)(=O)=O)CCC5)nn23)c1 [Example 1060, N-tert-Butyl-3-[2-(1-methanesulfonyl-1,2,3,4-tetrahydro-quinolin-7-ylamino)-pyrrolo[2,1-f][1,2,4]triazin-7-yl]-benzenesulfonamide]
> 7.00	6.00 to 7.00			CS(=O)(=O)c1cccc(-c2ccc3cnc(Nc4ccc(C5=CCN(CC(N)=O)CC5)c(C(F)(F)F)c4)nn23)c1 [Example 951, 2-(4-{4-[7-(3-Methanesulfonyl-phenyl)-pyrrolo[2,1-f][1,2,4]triazin-2-ylamino]-2-trifluoromethyl-phenyl}-3,6-dihydro-2H pyridin-1-yl) acetamide]
> 7.00	6.00 to 7.00			CN(c1ccccc1-c1ccc2cnc(Nc3ccc(-c4cccnc4)cc3)nn12)S(C)(=O)=O [Example 1092, N-Methyl-N-{2-[2-(4-pyridin-3-yl-phenylamino)-pyrrolo[2,1-f][1,2,4]triazin-7-yl]-phenyl}-methanesulfonamide]
		> 7.00	5.00 to 6.00	CC1(C)C(=O)Nc2cc(Nc3ncc4ccc(-c5cccc(N6CCCS6(=O)=O)c5)n4n3)ccc21 [Example 1510, 6-({7-[3-(1,1-Dioxido-1,2-thiazolidin-2-yl)phenyl]pyrrolo[2,1-f][1,2,4]triazin-2-yl}amino)-3,3-dimethyl-1,3-dihydro-2H-indol-2-one]
> 7.00	6.00 to 7.00			CN1CCN(c2ccc(Nc3ncc4ccc(C5=CCN(C(=O)OC(C)(C)C)CC5)n4n3)cc2)CC1 [Example 1135, 4-{2-[4-(4-Methyl-piperazin-1-yl)-phenylamino]-pyrrolo[2,1-f][1,2,4]triazin-7-yl}-3,6-dihydro-2H-pyridine-1-carboxylic acid tert-butyl ester]
> 7.00	> 7.00			CS(=O)(=O)Nc1cccc(-c2ccc3cnc(Nc4ccc(C5CCN(CCO)CC5)cc4)nn23)c1 [Example 958, N-[3-(2-{4-[1-(2-Hydroxy-ethyl)-piperidin-4-yl]-phenylamino}-pyrrolo[2,1-f][1,2,4]triazin-7-yl)-phenyl]-methanesulfonamide]
> 7.00	5.00 to 6.00			c1cc(Sc2ccc3cnc(Nc4ccc(N5CCOCC5)cc4)nn23)ccn1 [Example 1116, (4-Morpholin-4-yl-phenyl)-[7-(pyridin-4-ylsulfanyl)-pyrrolo[2,1-f][1,2,4]triazin-2-yl]-amine]
> 7.00	6.00 to 7.00			N#CCCn1cccc1-c1ccc2cnc(Nc3ccc(N4CCOCC4)cc3)nn12 [Example 1293, 3-{2-[2-(4-Morpholin-4-yl-phenylamino)-pyrrolo[2,1-f][1,2,4]triazin-7-yl]-pyrrol-1-yl}-propionitrile]
> 7.00	5.00 to 6.00			COc1ccccc1-c1ccc2cnc(Nc3cc4c(cc3F)CCC(=O)N4)nn12 [Example 922, 6-Fluoro-7-[7-(2-methoxy-phenyl)-pyrrolo[2,1-f][1,2,4]triazin-2-ylamino]-3,4-dihydro-1H-quinolin-2-one]
> 7.00	6.00 to 7.00			CN(c1ccccc1-c1ccc2cnc(Nc3ccc4cn(CCN5CCOCC5)nc4c3)nn12)S(C)(=O)=O [Example 1342, N-Methyl-N-(2-{2-[2-(2-morpholin-4-yl-ethyl)-2H-indazol-6-ylamino]-pyrrolo[2,1-f][1,2,4]triazin-7-yl}-phenyl)-methanesulfonamide]
> 7.00	6.00 to 7.00			CCN(CC)C1CCN(c2ccc(Nc3ncc4ccc(-c5cnn(C)c5)n4n3)cc2)CC1 [Example 1207, [4-(4-Diethylamino-piperidin-1-yl)-phenyl]-[7-(1-methyl-1H-pyrazol-4-yl)-pyrrolo[2,1-f][1,2,4]triazin-2-yl]-amine]
